Assay results as given in PMC9413201, “Covalent Proteomimetic Inhibitor of the Bacterial FtsQB Divisome Complex” (Journal of the American Chemical Society, 2022).
Where two headings read alike, the source gives them in different places.

Experiments:
[1] = system: E. coli lptD4213 (imp); test: Growth assay (OD600) with outer membrane-permeable E. coli lptD4213 (imp); format: cell-based; conditions: for Δt1/2 (delay in growth compared to DMSO-treated sample): inhibitor c = 50 μM, MOPS medium, 37 °C
Protocol: Growth assays were performed to assess the in vitro cytotoxicity of peptides. The experiments were executed under sterile conditions. For each assay, 20 mL of fresh MOPS medium was prepared (Teknova Inc MOPS EZ Rich Defined Medium Kit | M2105: 40 mM MOPS, 4 mM Tricine, 0.01 mM FeSO4, 9.5 mM NH4Cl, 0.276 mM […]
MOPS medium with Streptomycin (30 μg/mL) and incubated overnight at 200 rpm and 37°C. The next day, the […]
peptide stocks in DMSO were diluted to four times the desired highest concentration to be measured in MOPS medium. The peptide dilutions were vortexed and briefly centrifuged. 50 μL of MOPS medium was added to each well of a Corning® 96-well Clear Flat Bottom Polystyrene TC-treated Microplate. A twofold dilution series was performed by adding 50 μL of the diluted peptide to the top row, mixing it and taking 50 μL to the next row. At each step the solution was resuspended five times. This was repeated until the last row which was skipped in order to obtain a reference measurement. After 2-3 h, the E.coli lptD4213 (imp) pre-culture was diluted to an OD600 of 0.00005. Then, 50 μL of diluted culture were added to each well and the plate sealed using a lid and parafilm. The OD600 was measured every 15 min over a period of more than 20 h (continuously shaking, 37°C) using a BioTek Synergy H1 plate reader. The obtained data were analyzed and relative growth curves plotted with GraphPad Prism 8. The assays were performed as technical triplicates. A single overnight pre-culture was used to prepare the diluted MOPS culture used in the growth assay. […]

[2] = target: T1, FtsQ(50–276) (Escherichia coli, UniProt P06136); format: biochemical, E. coli; set-up: pET16b FtsQ(50˗276), a His6 fusion; made in house; host or cells: Escherichia coli BL21 DE3
Protocol: 1.5 Protein modification assay
To determine the reactivity of the different modifiers FtsQ(50˗276) was diluted to a concentration of 100 µM in 20 mM NH4HCO3 buffer (pH 7.6, 150 mM NaCl). The individual peptides were diluted to a concentration of 250 μM in the same buffer. Equal volumes of both solutions were mixed and incubated at 37 °C for the given time period (1 h or 3 h). The reaction was quenched using 5x SDS sample buffer (pH 6.8, 1.875 g TRIS-Cl, 25 mL glycerol, 5 g SDS, 12.5 mL β-mercaptoethanol, 0.5 % bromphenol blue and add 50 mL ddH2O). Samples were heated to 96 °C for 2 min and subsequently analysed by 17 % tris/tricine PAGE (15 min at 90 V and then 3:45 h at 150 V). PageRuler™ Prestained Protein Ladder, 10 to 180 kDa (Thermo Scientific™) was used as a ladder.
Staining was performed using standard Coomassie Staining Solution (40 mL EtOH, 0.3 g Coomassie Blue R250, 0.3 g Coomassie Blue G250, ad 100 mL ddH2O.) and then destained using water.
17 % Tris/Tricine gel (2x):
Running gel: 1.6 mL H2O, 5.5 mL AB-mix, 2.5 mL Buffer A, 100 μL 10% APS, 10 μL 1% TEMED Stacking gel: 2.1 mL H2O, 0.5 mL AB-mix, 0.38 mL Buffer A, 50 μL 10% APS, 5 μL 1% TEMED […]
Buffer A (4x) pH 8.45 3M Tris, 0.3 % SDS; Anode Buffer (10x) pH 8.8, 3M Tris; Cathode buffer (10x) 1M Tris, […]

[3] = target: T1, FtsQ(50–276); conditions: tryptic digest, LC-MS/MS
Protocol: μM CaCl2, 50 mM NaCl, traces of (NH4)6Mo7O24, H3BO3, CoCl2, CuSO4, MnCl2 and ZnSO4, 1.32 mM dibasic anhydrous […], 0.20% glucose, 1.5 mM KOH, 0.199 mM adenine, cytosine, uracil and guanine and 0.01 mM to 10 mM amino acids). A preculture of E.coli lptD4213 (imp) was prepared in 5 mL MOPS medium with streptomycin (30 μg/mL), which was grown overnight at 200 rpm and 37°C. The next day, the overnight culture was diluted a thousandfold and grown up to an OD600 of about 0.5 at 200 rpm and 37°C. After 2-3h, the culture was diluted to an OD600 of 0.1. 10 mM peptide stocks in DMSO were subsequently diluted to 200 μM in MOPS medium. For measuring two time points, a total volume of 110 μL peptide dilution was prepared, for 3 timepoints this was 160 μL. For each time point, 50 μL of diluted peptide was added into an Eppendorf tube, to which 50 μL diluted culture was added (final peptide concentration: 100 μM, starting OD600 = 0.05). The tubes were incubated for either 1,3 or 6 h at 200 rpm and 37°C. Then the cells were fixed using 8.3 μL 37% formaldehyde solution in H2O and incubated for 5 min at 200 rpm and 37°C. Subsequently, the mixture was centrifuged at 500 rpm for 5 min, after which the supernatant was discarded. The pellets were redissolved in 7.5 μL PBS buffer and stored at […]
Microscopy slides were prepared by melting 1% Nobel Agarose in MiliQ water in a microwave. 800 μL was dispersed over a well slide, a microscopy slide was put on top and air bubbles were removed. The agar was allowed to cool for 15 min, after which the microscopy slide was removed. The frozen samples were thawed and 3 μL of each sample was added to separate wells, after which a covering glass was put on top. Using an Olympus IX83 microscope with 100 times magnification ocular and phase contrast (halogen lamp wat approximately 7V), the morphology of the cells was investigated. Pictures were taken and subsequently analyzed with ImageJ and the ObjectJ Cell Counter (https://sils.fnwi.uva.nl/bcb/objectj/examples/CellCounter/cellcounter-md/cellcounter.html, accessed on February 2020).
For the MS/MS experiment samples were prepared as follows. The FtsQ(50˗276) stock solution was diluted to 100 μM and the stock of peptide 24fα was diluted to 250 μM with previously used binding buffer (20 mM NH4HCO3 (pH 7.6), 150 mM NaCl). 10 μL of each diluted stock were merged and the resulting mixture incubated over night at 37 °C. Then the samples were mixed with 5x SDS Sample buffer and 2.5 μL/lane loaded on to a 17% tris/tricine PAGE. The gel was run for 15 min at 90 V and 2h at 150 V.
A container of glass was prepared and extensively washed with soda and water. The gel was placed in the container and incubated in fixing solution (50% EtOH, 3% H3PO4) overnight to remove SDS. The next day, the fixing solution was removed and the gel washed with water a couple of times. Colloidal Coomassie staining solution (34% MeOH, 3 % H3PO4, 150 g (NH4)2SO4/L, 1 g/L G250) was added and the gel stained for 2 d. Then the gel was washed 3x for 30 min with water. Then the bands corresponding to modified and unmodified FtsQ were cut out (1 mm3 pieces) from the gel and transferred to original Eppendorf tubes. The gel pieces were washed with 200 μL water by vortex mixing for 30 s. Then the water was discarded. The gel pieces were then washed with 200 μL MeOH:50 mM NH4HCO3 (1:1 v/v) for 1 min with intermittent vortex mixing. The supernatant was discarded and the procedure repeated once. Then the gel pieces were dehydrated for 5 min in 200 μL of ACN: 50 mM NH4HCO3 (1:1 v/v) with intermittent vortex mixing. The supernatants were discarded and 200 μL of 100 % ACN added, mixed and incubated for 30 s. The samples were dried in a SpeedVac (appr. 5 min). They were then […]
rehydrated in 20 μL of 12 ng/μL Trypsin in 0.01% ProteaseMAX surfactant (Promega): 50 mM NH4HCO3 (Trypsin gold stock 1 μg/μl from Promega, high thermostability) for 10 min (2 μL to 200 μL) and overlayed with […]

[4] = system: FtsB-mNG localization in E. coli lptD4213 (imp); test: Localization of FtsB-mNG (fluorescence microscopy); format: cell-based; conditions: peptide c = 100 μM, 60 min after addition, MOPS rich medium, 37 °C
Protocol: were incubated for 1 h at 50 °C. The condensates were collected by centrifuging for 10 s. The digests were mixed for a few seconds and transferred to another tube. 0.5 % TFA was added to inactivate trypsin. The samples were […]
E.coli mutant lptD4213 (imp)
MOPS: MOPS EZ Rich Defined Medium Kit M2105 (Teknova).
At the end of the day, the cells
The next day, the cells were grown and diluted […]
objective. […] In all experiments, the cells […]
ex470/40, dic495LP, em525/50).

[5] = OD600 every 15 min over 22 h, n = 3 technical replicates

T1 sequence (P06136 50-276): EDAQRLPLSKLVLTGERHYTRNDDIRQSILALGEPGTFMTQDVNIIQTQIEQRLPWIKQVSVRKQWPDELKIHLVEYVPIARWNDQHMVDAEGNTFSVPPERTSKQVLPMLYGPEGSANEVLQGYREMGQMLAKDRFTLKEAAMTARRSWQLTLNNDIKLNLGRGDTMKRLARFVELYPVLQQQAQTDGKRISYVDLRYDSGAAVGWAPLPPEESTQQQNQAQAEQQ

## QEALEERA6NELSBTRPG6mFYRL (sidechain bridge or staple) [24fβ]
[1]; [5]
  Δt1/2 (delay in growth compared to DMSO-treated sample): 1.7 h
[2]; pH 7.6
  covalent labeling of FtsQ(50–276) (up-shifted band): showed labeling of FtsQ(50–276)

## QEALEERA6NELSBTRPG6mFYRL (sidechain bridge or staple) [24fα]
[3]
  count ratio 24fα-modified / unmodified FtsQ, ID 2 HYTRNDDIR: 1.60
  count ratio 24fα-modified / unmodified FtsQ, ID 3 […](*): 0.43
  count ratio 24fα-modified / unmodified FtsQ, ID 4 K/QWPDELK/[…]: 1.01
  count ratio 24fα-modified / unmodified FtsQ, ID 5 […](*): 1.20
  count ratio 24fα-modified / unmodified FtsQ, ID 6 […]/EMGQMLAK(*): 1.00
  count ratio 24fα-modified / unmodified FtsQ, ID 7 DRFTLK: 1.03
  count ratio 24fα-modified / unmodified FtsQ, ID 8 EAAMTAR*: 0.62
  count ratio 24fα-modified / unmodified FtsQ, ID 9 R/[…] (contains K208): 1.13
  count ratio 24fα-modified / unmodified FtsQ, ID 10 LNLGR/GDTMK/R (contains K218): 0.56
  count ratio 24fα-modified / unmodified FtsQ, ID 11 […]/R (contains K239): 0.20
  count ratio 24fα-modified / unmodified FtsQ, ID 12 ISYVDLR: 1.24
  count ratio 24fα-modified / unmodified FtsQ, ID 13 […]: 2.47
[3]; peptide 125 μM + FtsQ 50 μM overnight 37 °C
  count ratio 24fα-modified / unmodified FtsQ, ID 1 LVLTGER: 1.17
[1]; [5]
  Δt1/2 (delay in growth compared to DMSO-treated sample): 3.6 h
[2]; peptide 125 μM, FtsQ(50–276) 50 μM, 20 mM NH4HCO3 pH 7.6, 150 mM NaCl, 37 °C, 1 or 3 h
  covalent labeling of FtsQ(50–276) (up-shifted band): showed labeling of FtsQ(50–276)

## A6NELSBTRPG6mFYRL (sidechain bridge or staple) [17fγ, vinyl sulfone-modified 17-mer macrocyclic scaffold]
[1]; [5]
  Δt1/2 (delay in growth compared to DMSO-treated sample): 4.5 h
[2]
  specificity of FtsQ(50–276) modification (number of up-shifted bands): two up-shifted bands

## A6NELSBTRPG6mFY (sidechain bridge or staple) [15fα, 24fα lacking seven N-terminal and two C-terminal amino acids; negative control peptide]
[4]
  FtsB-mNG midcell localization: regular accumulation of FtsB-mNG at the midcell
[1]; concentration-dependent effect on growth after 15 h, highest tested concentration 100 μM, n = 3 replicates
  lowest concentration with inhibitory effect on growth: > 100 µM
[1]; inhibitor c = 25 μM, OD600 every 15 min over 22 h, n = 3 technical replicates
  inhibitory activity on bacterial growth (OD600): did not exhibit inhibitory activity

## A6NELSBTRPG6mFYRL (sidechain bridge or staple) [17fδ, dichlorotriazin-modified 17-mer macrocyclic scaffold]
[1]; [5]
  Δt1/2 (delay in growth compared to DMSO-treated sample): 5.7 h

## QEALEERA6NELSBTRPG6mFYRL (sidechain bridge or staple) [24fγ, vinylsulfon-modified macrocyclic 24f, N-acetylated]
[2]
  specificity of FtsQ(50–276) modification (number of up-shifted bands): multiple up-shifted bands
[2]; pH 7.6
  covalent labeling of FtsQ(50–276) (up-shifted band): showed labeling of FtsQ(50–276)

## QEALEERA6NELSBTRPG6mFYRL (sidechain bridge or staple) [24fδ]
[1]; [5]
  Δt1/2 (delay in growth compared to DMSO-treated sample): 4.1 h
[2]; pH 7.6
  covalent labeling of FtsQ(50–276) (up-shifted band): showed labeling of FtsQ(50–276)
